Key:
[1] = system: female Asian tiger mosquitoes; test: Evaluation of inhibitory effect on seeking behavior for heat source (thermoreception-inhibiting effect); assay type: in vivo, Asian tiger mosquito; conditions: fragrance 0.1% in ethanol, 50 μL on sheet on plate heater, landings counted after 30 seconds of contact, relative to ethanol only; for pest or weed control at 0.1 %: Aedes albopictus, 0.5 min, read-out: Inhibitory rate for seeking for heat source (%)
Experimental: (1) Preparation of Asian Tiger Mosquitoes
(§1) Asian tiger mosquitoes grown from eggs purchased from Sumika Technoservice Corporation were used. A transparent plastic pan was filled with water to a depth of approximately 1 cm, and a filter paper on which the eggs had been deposited was put therein. The larvae were fed with tropical fish feed (TetraMin) every day. After approximately 1 week, the pupae were collected with a dropper, and transferred into a 20 mL plastic cup, and the cup was placed in a netted cage. The adults were fed with 10% by mass sucrose contained in a 25 mL plastic tube. The males and females were kept together in one cage and allowed to mate for 5 days after eclosion. After 5 days of captivity, the adults were collected with an insect aspirator and anesthetized on ice for 5 minutes, and visually sorted into males and females to collect only the females.
(2) Evaluation of Inhibitory Effect on Seeking Behavior for Heat Source
Approximately 150 to 200 female Asian tiger mosquitoes were transferred in a plastic cage (30×30×30 cm). To monitor the behavior of the female mosquitoes from the top of the plastic cage, the top surface of the cage was replaced with an acrylic plate. A plate heater (multi-panel heater 16 W for small animals, manufactured by Vivaria) as a heat source was provided at a corner of the cage from the outside of the mesh with an area of 5×3 cm exposed. To take a photograph of the heat source from the top surface in experiment, a video camera (manufactured by Sony Corporation) was disposed above the top surface. A sheet for application of a sample was fixed to the heat source with a double-sided adhesive tape.
The concentration of a fragrance listed in Table 1 was adjusted to 0.1% with ethanol to prepare a sample, and 50 μL of the sample or ethanol as a solvent was administered in experiment. To activate the female mosquitoes, 1% of carbon dioxide was administered from the top for 1 second, and then the heat source was brought into contact with the cage. After 30 seconds of contact, a photograph of the heat source was taken to count the number of mosquitoes attracted. The sheet used for the heat source was discarded and replaced with another sheet every time the assay was completed. In view of the influence of a sample on the mosquitoes, the number of evaluations performed for one cage was limited to (7 samples+1 control) at a maximum. The inhibitory rate relative to the number of landings with application of ethanol solvent only was calculated for one set of assays (7 samples+1 control) to determine the inhibitory effect by using the following equation. Inhibitory rate (%)=100×(1−[number of landings with application of sample]/[number of landings with application of ethanol]) (Equation 1)

[2] = system: carbon dioxide-sensitive sensory hair of an Asian tiger mosquito; test: Evaluation of carbon dioxide response-inhibiting effect (nerve firing recording of sensory hair); assay type: in vivo; conditions: fragrance 1% in paraffin oil, 15 μL on filter paper, olfactory stimulation 1 second, nerve firings relative to paraffin oil, N=1; for pest or weed control at 1 %: Aedes albopictus, 1 s, read-out: Inhibition of carbon dioxide response (%)
Experimental: as §1, with “10” for “10% by”, “mass %” for “mass”, “females. The wings and legs were removed from each female mosquito under anesthesia, and the female mosquito was pushed onto a double-sided adhesive tape pasted on a microscope slide with the back on the tape and thus fixed thereto, and the antennae and maxillary palpi were positioned, so as to achieve the accessibility of electrodes.” for “females.”
A 1 mol/L aqueous solution of potassium hydroxide was injected into a 50 mL syringe, and the syringe was horizontally fixed to a magnet stand with a clamp. A tungsten wire fixed to an electrode holder was horizontally inserted into the syringe, and polished by electrolysis under microscopic observation. A current was supplied from an AC power source to the syringe through the electrode holder via crocodile clips.
The Asian tiger mosquito prepared on a microscope slide was set under a microscope, and positioned so that the antennae were at the center of the view through a ×10 objective lens. A reference electrode was inserted in the eye of the insect. A pipette for providing an olfactory stimulus was placed near the maxillary palpi, and the objective lens was replaced with a ×100 objective lens. The recording electrode was brought close to the sensory hair, and carefully inserted into the sensory hair with a micromanipulator. The peg-like shape of the carbon dioxide-sensitive sensory hair of an Asian tiger mosquito can be confirmed under microscopic observation. After insertion of the electrode into the sensory hair, the spontaneous nerve firing pattern was investigated. Carbon dioxide the concentration of which had been adjusted to 0.1% was led to an olfactory stimulation apparatus via a silicone tube to stimulate the maxillary palpi for 1 second, and the carbon dioxide response was investigated.
The concentration of each of the fragrances listed in Table 4 was adjusted to 1% with paraffin oil, and the resultant was used as a sample. On a filter paper (3 mm×50 mm) 15 μL of the sample was dropped, and the filter paper was inserted in a Pasteur pipette. The Pasteur pipette was connected to a stimulation apparatus via a plastic tube, and olfactory stimulation was performed for 1 second while the response to carbon dioxide in the air was monitored, and thus the carbon dioxide response-inhibiting effect was evaluated. The number of nerve firings in 1 second after stimulation with paraffin oil as a solvent and the number of nerve firings in 1 second after stimulation with each sample were counted, and the ratio was used for evaluation of the response-inhibiting effect (N=1). Inhibitory rate (%)=100×([number of firings after stimulation with paraffin oil−number of firings after stimulation with sample]/[[number of firings after stimulation with paraffin oil]) (Equation 2)

[3] = system: Adult Asian tiger mosquitoes; test: Evaluation of inhibition of seeking behavior for human arm (landings on gloved hand); assay type: in vivo, Asian tiger mosquito; conditions: for Total landing rate (%) / Number of landings total: sample 0.4% in ethanol on cotton-gloved hand; for Total landing rate (%): relative to number of landings with control sample (ethanol) as 100%; for Number of landings total: sum total of 1, 2 and 3 minutes; for Number of landings 1 min / Number of landings 2 min / Number of landings 3 min: sample 0.4% in ethanol, sprayed 14 times (0.6 g) on cotton-gloved hand; for Number of landings 1 min: after 1 minute; for Number of landings 2 min: after 2 minutes; for Number of landings 3 min: after 3 minutes
Source text: Adult Asian tiger mosquitoes consisting of 220 females and 80 males each at 5 to 10 day old were purchased from Sumika Technoservice Corporation, and released in a 30 cm×30 cm×30 cm plastic cage (bug dorm).
The concentration of each of 2,4-dimethylcyclohex-3-ene-1-methanol (“floralol”, IFF Inc.) and octahydro-7-methyl-1,4-methanonaphthalen-6(2H)-one (“PLICATONE”, Firmenich SA) as evaluation samples was adjusted to 0.4% with ethanol. A sample containing only ethanol was used as a control.
Each of the evaluation samples and control sample was sprayed 14 times in total (0.6 g) to both sides of a hand wearing a 100% cotton glove doubly.
After application of the sample, the gloved hand was left to stand for 1 minute to volatilize ethanol, and the gloved hand with the sample applied thereto was then put in the plastic cage, and the number of mosquitoes which landed on the glove was counted every 1 minute.
The numbers of landings after 1 minute, 2 minutes, and 3 minutes, and the sum total of them were counted, and the landing rate relative to the number of landings with application of the control sample as 100% was calculated. This experiment was repeated three times.

Row | SMILES | pest or weed control at 0.1 % [1] [%] | pest or weed control at 1 % [2] [%] | also measured
1 | COC(OC)C(C)c1ccccc1 (centres unmarked) [2-Phenylpropionaldehyde dimethyl acetal, 2-phenylpropionaldehyde dimethyl acetal] | 66.8 | – | –
2 | Cc1ccc2ncccc2c1 [6-Methylquinoline, 6-methylquinoline] | 64.7 | – | –
3 | CCCc1ccc(O)c(OC)c1 [2-Methoxy-4-propylphenol, 2-methoxy-4-propylphenol] | – | 95 | –
4 | CCOC(=O)C(C)C1CCCCC1 (centres unmarked) [Ethyl 2-cyclohexylpropionate, ethyl 2-cyclohexylpropionate] | – | 48 | –
5 | CCC(=O)OCc1ccccc1 [Benzyl propionate, benzyl propionate] | – | 97 | –
6 | O=C1CCC2CCCCC2O1 (centres unmarked) [Octahydro-2H-1-benzopyran-2-one, octahydro-2H-1-benzopyran-2-one] | 93.3 | – | –
7 | CCCC1CC(=O)C=C(C)C1 (centres unmarked) [3-Methyl-5-propyl-2-cyclohexen-1-one, 3-methyl-5-propyl-2-cyclohexen-1-one] | 97.2 | – | –
8 | Cc1ncsc1CCO [4-Methyl-5-thiazoleethanol, 4-methyl-5-thiazoleethanol] | 74.5 | – | –
9 | CCCCC(CC)C(=O)OCC (centres unmarked) [Ethyl 2-ethylhexanoate, ethyl 2-ethylhexanoate] | – | 51 | –
10 | CCC/C=C/COC(C)=O [trans-2-Hexenyl acetate, trans-2-hexenyl acetate] | – | 48 | –
11 | CCCCCCCCCCO [1-Decanol, 1-decanol] | – | 54 | –
12 | CC1=C(C=O)C(C)(C)CC=C1 [2,6,6-trimethylcyclohexa-1,3-diene-1-carbaldehyde] | 91.7 | – | –
13 | COC(C)(C)CCCC(C)CC=O (centres unmarked) [7-Methoxy-3,7-dimethyloctanal, 7-methoxy-3,7-dimethyloctanal] | 72.4 | – | –
14 | CCCCC1CCC(=O)O1 (centres unmarked) [γ-Octalactone, γ-octalactone] | – | – | Inhibitory rate for seeking for heat source (%) [1]: 87.4%
15 | CC1=CC(C)C(C=O)C(C)C1 (centres unmarked) [Isocyclocitral, isocyclocitral] | – | – | Inhibition of carbon dioxide response (%) [2]: 61%
16 | CC1CC2C3CCC(C3)C2CC1=O (centres unmarked) [octahydro-7-methyl-1,4-methanonaphthalen-6(2H)-one] | 81.3 | – | Total landing rate (%) [3]: 53.3%; Number of landings total [3]: 12; Number of landings 1 min [3]: 2; Number of landings 2 min [3]: 4; Number of landings 3 min [3]: 6

Row | SMILES | pest or weed control at 0.1 % [1] [%] | pest or weed control at 1 % [2] [%] | also measured
17 | CC1=CC(C)C(CO)C(C)C1 (centres unmarked) [2,4,6-Trimethyl-3-cyclohexene-1-methanol, 2,4,6-trimethyl-3-cyclohexene-1-methanol] | – | 61 | –
18 | Cc1csc(C(C)C)n1 [2-Isopropyl-4-methylthiazol, 2-isopropyl-4-methylthiazol] | – | 71 | –
19 | CC=C1CC2CC1C1CCC(=O)OC21 (centres unmarked) [9-ethylidene-3-oxatricyclo(6.2.1.0^2,7)undecan-4-one] | 85.9 | – | –
20 | CCOC(=O)Cc1ccccc1 [Ethyl phenylacetate, ethyl phenylacetate] | – | 79 | –
21 | CC1C(=O)c2ccccc2C1(C)C (centres unmarked) [2,3,3-Trimethyl-2H-inden-1-one, 2,3,3-trimethyl-2H-inden-1-one] | 76.2 | – | –
22 | CCCCCC1=C(C)CCC1=O [3-Methyl-2-pentylcyclopent-2-en-1-one, 3-methyl-2-pentylcyclopent-2-en-1-one] | – | 68 | –
23 | C=CC(O)CCCCC (centres unmarked) [1-Octen-3-ol, 1-octen-3-ol] | – | 55 | –
24 | CCC(C)(O)CCc1ccccc1 (centres unmarked) [3-Methyl-1-phenyl-3-pentanol, 3-methyl-1-phenyl-3-pentanol] | 69.3 | – | –
25 | O=CCOc1ccccc1 [Phenoxyacetaldehyde, phenoxyacetaldehyde] | 89 | – | –
26 | CC(=O)OC1CCCCC1C(C)(C)C (centres unmarked) [o-tert-Butylcyclohexyl acetate, o-tert-butylcyclohexyl acetate] | – | 87 | –
27 | CCCCCCCCO [1-Octanol, 1-octanol] | – | 97 | –
28 | CC/C=C\CCOC(C)=O [cis-3-Hexenyl acetate, cis-3-hexenyl acetate] | – | 50 | –
29 | COC1CC2CC1C1CC(C=O)CC21 (centres unmarked) [octahydro-5-methoxy-4,7-methano-1H-indene-2-carboxaldehyde] | 89.2 | – | –
30 | CC1=CC(C)C(CO)CC1 (centres unmarked) [2,4-Dimethylcyclohex-3-ene-1-methanol, 2,4-dimethylcyclohex-3-ene-1-methanol] | – | 67 | Total landing rate (%) [3]: 71.1%; Number of landings total [3]: 16; Number of landings 1 min [3]: 3; Number of landings 2 min [3]: 6; Number of landings 3 min [3]: 7
31 | C=CCCCCCCCCO [9-Decen-1-ol, 9-decen-1-ol] | – | 56 | –
